Measured values taken from patent US20230234996A1, “PI3K GAMMA INHIBITOR PEPTIDE FOR TREATMENT OF FIBROPROLIFERATIVE VASCULAR DISEASES” (Kither Biotech S.r.l., priority 2020, published 2023).
Entries after “also recorded” stand apart in the source; their conditions may differ.

Key:
[1] = system: intracellular cAMP in primary VSMC; experiment: cAMP dynamics with FRET-based TEpacVV biosensor; type: cell-based, mouse; details: for cAMP level regulated by PDE4 (rolipram response): rolipram 1 μM; for cAMP level regulated by PDE3 (cilostamide response): cilostamide 1 μM; for cAMP production in response to forskolin: Rmax = forskolin 2.5 μM + IBMX 200 μM
Procedure: A. Left panel: Average changes in intracellular cAMP concentration ([cAMP]i) in primary VSMC from WT (top), PI3Kγ KO (middle) and PI3Kγ-KD (bottom) mice and expressing the ^TEpac^VV biosensor. The black line represents the average F480/F535 emission ratio over time in response to 2.5 μM forskolin (fsk) stimulation and fsk (2.5 μM)+IBMX (200 μM) treatment. B. Histograms representing the mean values for forskolin responses. Results are expressed as a percentage of the maximal ratio change (% of Rmax(IBMX response)) determined by the final application of forskolin (2.5 μM)+IBMX (200 μM). Data shown are the means±SEM. (n=5 mice). Data are presented as mean±SEM and were compared using a Kruskal-Wallis test. C. Homogenous time-resolved fluorescence (HTRF) dosage of intracellular cAMP from WT, PI3Kγ KO or PI3Kγ KD primary VSMC after 30 min treatment with vehicle or 0.5 μM Forskolin.
A. Average changes in [cAMP]i in primary VSMC from WT (top), PI3Kγ KO (middle) and PI3Kγ-KD (bottom) mice and expressing the ^TEpac^VV biosensor. The trace indicates the average F480/F535 emission ratio over time in response to 2.5 μM forskolin, cilostamide (1 μM), rolipram (1 μM) and forskolin (2.5 μM)+IBMX (200 μM) treatment. B. Histograms representing the mean values for rolipram and cilostamide responses. Results are expressed as a percentage of the maximal ratio change (% of Rmax (IBMX response)) determined by the final application of forskolin (2.5 μM)+IBMX (200 μM). Data are presented as mean±SEM (n>22 with 4 different mice) and were compared using a Kruskal-Wallis test. C. Phosphodiesterase activity detected in PDE4D immunoprecipitates from primary VSMC. Data shown are the means±SEM and compared using one-way ANOVA followed by Bonferroni post-hoc test (n=3). D. Representative Western blot of PDE4D immunoprecipitates.
Measurement of cAMP dynamics: Primary SMC were seeded on coverslips and infected with the ^TEpac^VV-encoding type-5 adenovirus (˜100 particles per SMC) as described elsewhere. Coverslips were placed in a microscope chamber continually perfused (2 mL·min^−1) with BBS buffer (125 mM NaCl, 2 mM CaCl2), 1 mM MgCl2, 1.25 mM NaH2PO4, 26 mM NaHCO3, 25 mM glucose) saturated with 95% 02-5% CO2. Ratiometric analyses were performed as follows: fluorescence was excited with a LED source at 435 nm and fluorescence emission was monitored with a dichroic mirror (T450LPXR) and alternating emission filters for the donor (HQ480/40) and acceptor (D535/40). Pairs of images were recorded with an Orca-ER CCD camera (Hamamatsu Photonics, Japan), at 20-s intervals. Changes in [cAMP]i are expressed as the ratio of donor fluorescence (F480) to acceptor fluorescence (F535). The ratios were multiplied by a same constant for all experiments, such that the baseline ratio was 1 in basal conditions. The maximum ratio change (Rmax) was obtained by stimulating cells with 2.5 μM forskolin and […] IBMX (15879, Sigma Aldrich). Filters and mirrors were obtained from AHF analysentechnik AG, Tübingen, Germany.

[2] = system: C5a-mediated Akt phosphorylation (Ser-473), relying on the catalytic activity of PI3Kγ, RAW264 macrophages; experiment: C5a-mediated Akt phosphorylation in macrophages (Western blot); type: cell-based; details: then C5a 5 min
Procedure: A. Schematic representation of the cell-permeable PI3Kγ competing peptide. The 126-150 region of PI3Kγ was fused to the cell-penetrating peptide Penetratin 1 (P1). A control peptide was generated by insertion of two point mutations (K>A and R>A at position 1 and 5 of the PI3Kγ sequence, respectively). B. RAW macrophages were pre-treated with vehicle, the PI3Kγ peptide (10 μM) or the PI3Kγ kinase inhibitor AS605240 (1 μM) for 1 hour and then with C5a (50 μM) for 5 minutes. Representative Western blot images of phospho-AKT (Ser-473) and total AKT (left) and ratio quantification (right) are shown. GAPDH was used as loading control. n=3. C. Incorporation by primary VSMC of a FITC-labelled PI3Kγ peptide at 1 h, 5 h, 24 h and 30 h after incubation. D. Quantification of FITC-associated fluorescence intensity inside VSMC area. C5a-mediated Akt phosphorylation in macrophages: After 3 h starvation in serum-free medium, RAW264 macrophages were pre-treated with the PI3Kγ competing peptide (25 μM) or the PI3Kγ inhibitor AS-605240 (1 μM; MedChemExpress) or DMSO for 30 min and stimulated for 5 min with 50 nM of C5a (Sigma Aldrich). Akt phosphorylation at Ser-473 was detected by Western blot using a Ser473 Akt-specific antibody (Cell Signaling Technology).

[3] = system: primary VSMC; experiment: Mouse SMC proliferation by BrdU incorporation; type: cell-based; details: for cell proliferation (BrdU incorporation): 25 μM peptide 24 h, PDGF 25 ng/ml with or without forskolin 25 μM, vs control peptide
Procedure: A. Representatives cross sections of injured femoral arteries stained with Masson Trichrome from the indicated hematopoietic chimeras. Scale bars=100 μM. Irradiated WT, PI3Kγ KD (KD) and PI3Kγ KO recipient mice were transplanted with bone marrow from the indicated donors to obtain the indicated chimeras. Irradiated WT mice were transplanted with bone marrow from WT, PI3Kγ KD or PI3Kγ KO to obtain the following hematopoietic chimeras: WT>WT, KD>WT and KO>WT. Irradiated KD recipient mice were transplanted with bone marrow from WT or PI3Kγ KD donor mice (WT>KD; KD>KD). Irradiated KO recipient mice were transplanted with bone marrow from WT or KO donors (WT>KO and KO>KO). B. Quantitative analysis of intima/media ratios of indicated hematopoietic chimeras. Histogram represents the neointima/media ratio for each chimera (n>6 mice for each group). Data are presented as mean±SEM and were compared using a one-way ANOVA test. C. Schematic representation of the experimental model used to investigate PI3Kγ implication in the control of SMC proliferation. D. Western blot of PI3Kγ expression in each genotype. […] (5<n<12 cultures for each genotype). Data are presented as mean±SEM and were compared using a one-way ANOVA test.
A, B, C. […] BrdU was added during the last 18 h (n=8 cultures for each genotype). Data are presented as mean±SEM and were compared using a one-way ANOVA test. D. Schematic model of PI3Kγ implication in VSMC proliferation. VSMC proliferation is induced by PDGF stimulation. […] This PI3Kγ recruitment could also concentrate phosphodiesterases (PDE) that counterbalance cAMP production by adenylate cyclase (AC) induced by other signals. By these mechanisms, PI3Kγ acts as an amplifier of VSMC synthetic transition.
Measure of mouse SMC proliferation: Primary mouse SMCs were sub-cultured onto 48-well cell culture plates in complete medium. Cells were treated or not with PDGF (520-BB-050, R&D Systems) and forskolin (F3917, Sigma Aldrich) for 24 h. For blocking peptide experiments, cells were incubated 24 h with 25 μM of control ([…]—SEQ ID No.: 13) or blocking peptide ([…]—SEQ ID No.: 14). Peptides were synthesized by GenScript (GenScript, Piscataway, N.J.). BrdU (00-0103, Invitrogen) incorporation assays were performed by classical immunofluorescence procedure using anti-BrdU antibody (11-5071, eBioscience) and DAPI. Proliferation rate is measured as the ratio of BrdU positive nuclei over total nuclei and expressed as fold increase.

[4] = system: PDE4D; experiment: PDE4D function in VSMC; type: cell-based; details: summary statement
[5] = system: PKA; details: reference [19]; cited from earlier work
[6] = forskolin-stimulated PI3Kγ-KD VSMC
[7] = forskolin-stimulated PI3Kγ-KO VSMC

COc1ccc(C2CNC(=O)C2)cc1OC1CCCC1 (stereo not drawn) [rolipram]
cAMP level regulated by PDE4 (rolipram response) [1, 6]: 73 % of IBMX response | cAMP level regulated by PDE4 (rolipram response) [1, 7]: 43 % of IBMX response | cAMP level regulated by PDE4 (rolipram response) ([1]; forskolin-stimulated WT VSMC): 67 % of IBMX response

CN(C(=O)CCCOc1ccc2[nH]c(=O)ccc2c1)C1CCCCC1 [cilostamide]
cAMP level regulated by PDE3 (cilostamide response) [1, 6]: 17 % of IBMX response | cAMP level regulated by PDE3 (cilostamide response) [1, 7]: 49 % of IBMX response | cAMP level regulated by PDE3 (cilostamide response) ([1]; forskolin-stimulated WT VSMC): 25 % of IBMX response

C=C[C@@]1(C)CC(=O)[C@]2(O)[C@@]3(C)[C@@H](O)CCC(C)(C)[C@@H]3[C@H](O)[C@H](OC(C)=O)[C@@]2(C)O1 [forskolin]
cAMP production in response to forskolin ([1]; 2.5 μM forskolin, PI3Kγ-KO primary VSMC): 52.57 % of IBMX response | cAMP production in response to forskolin ([1]; 2.5 μM forskolin, WT primary VSMC): 24.09 % of IBMX response | increase of forskolin cAMP response, PI3Kγ-KO compared to WT ([1]; 2.5 μM forskolin, p=0.03): 2.2 folds

RQIKIWFQNRRMKWKKGKATHRSPGQIHLVQRHPPSEESQAF (KIT2014) [PI3Kγ peptide, The 126-150 region of PI3Kγ fused to the cell-penetrating peptide Penetratin 1 (P1)]
C5a-mediated Akt phosphorylation in macrophages ([2]; RAW macrophages pre-treated with PI3Kγ peptide (25 μM b74; 10 μM b24)): unaltered | cell proliferation (BrdU incorporation) ([3]; PI3Kγ-KD primary VSMC): inhibited cell proliferation | cell proliferation (BrdU incorporation) ([3]; PI3Kγ-KO primary VSMC): no difference was observed | VSMC proliferation ([3]; VSMC in vitro, response to PDGF and forskolin, genotype not stated (summary statement)): abolished VSMC proliferation; also recorded: inhibits VSMC proliferation | cell proliferation (BrdU incorporation) ([3]; WT primary VSMC): inhibited cell proliferation | cAMP levels in VSMC ([1]; peptide conjugated with Penetratin 1, summary statement): increases their cAMP levels | PDE4D function [4]: specifically blunted PDE4D function

RQIKIWFQNRRMKWKKGAATHASPGQIHLVQRHPPSEESQAF (control peptide)
interaction with PKA [5]: does not interact with PKA

O=C1NC(=O)/C(=C\c2ccc3nccnc3c2)S1 [AS-6052540]
C5a-mediated Akt phosphorylation in macrophages ([2]; RAW macrophages pre-treated with inhibitor 1 μM): significantly reduced
